# Measured values reported in patent US5032404A, “Lipsome-incorporation of polyenes” (priority 1989, dated 1991).
# Read-outs that look alike come from different tables or passages of the source.
# What was measured:
# C. albicans [1] = assay: Antifungal activity (MIC) of free versus liposomal polyenes; format: cell-based
# Procedure: The antifungal activity of free-verses liposomal-small polyenes was determined in vivo. These small polyenes included filipin, lagosin and natamycin.
# The in vivo toxicity of liposomal small polyenes was evaluated in groups of 8 Hale-Stone mice (6-8 weeks old, body weight =20-25g; University of Texas Science Park, Bastrop, Tex.). Liposomal polyenes were prepared following the protocol set forth in Example 2. Each liposomal-small polyene formulated and evaluated in this study, listed in table 6, was administered to a group of normal and a group of infected mice. These infected mice were prepared by injection with 0.2 ml. of C. albicans according to the protocol set forth in Example 6.
# The data on MIC of various liposomal-mepartricin preparations in normal and infected mice is presented for each of the small polyenes (filipin, lagasin natamysin and nystatin) and large polyenes in Table 6.
# [2] = test system: Candida albicans (strain 336); assay: In vitro fungal inhibition (MIC), twofold serial dilution; format: cell-based
# Procedure: The antifungal activity of free- verses liposomalhamycin against Candida albicans (strain 336) was determined in vitro. All strains of yeast were grown overnight at 37° C. on Sabouraud dextrose agar (SDA) plates. All molds were grown at 30° C. on SDA for 3 to 10 days prior to collection of spores. The inoculum was then processed for susceptibility testing as described earlier (Hopfer et al. (1984), Antimicrob. Agents Chemotherap., 25:387-389). A twofold serial dilutron method (Shadomy et al., In E. H. Lennette, et al., (eds.) Manual of Clinical Microbiology, 3rd ed. American Society for Microbiology, Washington, D.C. , pp. 647-653 (1980)) adapted to microtiter plates was used to determine the minimal inhibitory concentration (MIC) of the drugs.
# The antifungal activity of free- versus liposomal-lucensomycin against Candida albicans (Strain 336) was determined in vitro. […] The MIC of free-lucensomycin was compared with that of liposomal-lucensomycin.
# C. albicans [3] = assay: Single dose therapy of disseminated Candida albicans infection in mice; format: in vivo; conditions: free-hamycin from 5 microgram/mouse, versus control untreated group
# Procedure: Hale-Stoner mice, six to eight weeks old (body weight, 20-25 g) were purchased from The University of Texas Science Park (Bastrop, TX). The mice (eight per group) were injected with 0.2 ml of C. albicans cell suspension containing 7×10^5 colony-forming units (cfu) via the tail vein. This concentration of cells was consistent in producing a disseminated infection after 48 hr, affecting primarily the liver, spleen, lungs and kidneys.
# Mice were infected with C. albicans as described in Example 7. […] The survival of the animals in each group was recorded.
# [4] = principal sterol of fungal versus human cell membranes; cited from earlier work
# human RBCs = assay: In vitro toxicity: lysis of human red blood cells (hemoglobin release at 540 nm); conditions: 45 min
# Text: Lysis of human red blood cells (RBCs) was quantitated by measuring the release of hemoglobin in the supernatants at 540 nm, as described previously (Mehta et al., (1984) Biochem. Biophys, Acta., 770:230-234). […] Release of hemoglobin by hypotonic lysis of the same number of human RBCs by water was taken as 100% positive control, while cells treated with PBS were taken as negative controls.
# Lysis of human red blood cells (RBCs) was quantitated by measuring the release of hemoglobin in the supernatants at 540 nm, as described previously (Mehta et al., Biochem. Biophys, Acta., Vol. 770, pp. 230-234 (1984)). […] Release of hemoglobin by hypotonic lysis of the same number of human RBCs by water was taken as 100% positive control, while cells treated with PBS were taken as negative controls.
# Lysis of human red blood cells (RBCs) was quantitated by measuring the release of hemoglobin in the supernatants at 540 nm, as described previously (Mehta et al., (1984) Biochem. Biophys. Acta., 770:230-234). […] Release of hemoglobin by hypotonic lysis of the same number of human RBCs by water was taken as 100% positive control, while cells treated with PBS were taken as negative controls.
# Lysis of human red blood cells (RBCs) was quantitated by measuring the release of hemoglobin in the supernatants at 540 nm, as described previously (Mehta, et al. (1984) Biochem. Biophys. Acta, 770:230-234). […]
# HTLV-III/LAV = conditions: monocyte-related cell line H9; Schaffner et al. (1986); cited from earlier work
compound,measurement,setting,value
"CCCCC[C@@H](O)[C@H]1C(=O)O[C@H](C)[C@@H](O)/C=C/C=C/C=C/C=C/C=C(\C)[C@@H](O)C[C@H](O)C[C@H](O)C[C@H](O)C[C@H](O)C[C@H](O)C[C@@H]1O [Filipin, filipin]","MIC, free",C. albicans [1],8.0 to 16.0 mg/L
hamycin,MIC,"[2]; Candida albicans strain 336, in vitro",0.25 microgram/ml
same,Survival of infected mice (in words),C. albicans [3],None of the doses tested improved the survival of infected mice
same,Avidity for ergosterol compared to cholesterol (in words),[4],greater avidity for ergosterol
"CCCCC1C/C=C/C=C/C=C/C=C/C(O[C@@H]2O[C@H](C)[C@@H](O)[C@H](N)[C@@H]2O)CC2OC(O)(CC(O)CC3OC3/C=C/C(=O)O1)CC(O)C2C(=O)O (some centres unmarked) [Lucensomycin, lucensomycin]",Antifungal activity (in words),"[2]; in vitro, with or without cholesterol where stated",high antifungal activity
same,Maximum solubility,DMFA,10 mg/mL
same,Solubility in DMFA at 1 mg/ml,"DMFA, 1 mg/ml",Yes
same,Maximum solubility,DMSO,20 mg/mL
same,Solubility in DMSO at 1 mg/ml,"DMSO, 1 mg/ml",Yes
same,Maximum solubility,methanol,0.5 mg/mL
same,Solubility in methanol at 1 mg/ml,"methanol, 1 mg/ml",Partial
same,Solubility in water/saline at 1 mg/ml,"water/saline, 1 mg/ml",nil
same,Avidity for ergosterol compared to cholesterol (in words),[4],greater avidity for ergosterol
same,Lysis of human RBCs,"human RBCs; 10 mg/ml, 37° C.",70%
same,Lysis of human RBCs,"human RBCs; 30 mg/ml, liposomes without cholesterol",approximately 100%
"CCCCC[C@@H](O)[C@H]1C(=O)O[C@H](C)[C@@H](O)/C=C/C=C/C=C/C=C/C=C(\C)[C@@H](O)[C@H](O)[C@H](O)C[C@H](O)C[C@H](O)C[C@H](O)C[C@H](O)C[C@@H]1O [Lagosin, lagosin]","MIC, free",C. albicans [1],4.0 mg/L
"C[C@@H]1C/C=C/C=C/C=C/C=C/[C@H](O[C@@H]2O[C@H](C)[C@@H](O)[C@H](N)[C@@H]2O)C[C@@H]2O[C@](O)(C[C@@H](O)C[C@H]3O[C@@H]3/C=C/C(=O)O1)C[C@H](O)[C@H]2C(=O)O [Natamycin, natamycin]","MIC, free",C. albicans [1],4.0 mg/L
"COc1cc2c(c3oc(-c4ccccc4)cc(=O)c13)C=CC(C)(C)O2 [Candidin, candidin]","MIC, free",C. albicans [1],5.0 mg/L
COC(=O)[C@H]1[C@@H]2C[C@@H](O[C@@H]3O[C@H](C)[C@@H](O)[C@H](N)[C@@H]3O)/C=C/C=C/C=C/C=C/C=C/C=C/C=C/[C@H](C)[C@@H](O)[C@@H](C)[C@H](C)OC(=O)C[C@H](O)C[C@H](O)CC[C@@H](O)[C@H](O)C[C@H](O)C[C@](O)(C[C@@H]1O)O2 [amphotericin B methyl ester ascorbate],Replication of HTLV-III/LAV (in words),HTLV-III/LAV,inhibited
C[C@@H]1[C@H](O)[C@@H](C)/C=C/C=C/C=C/C=C/C=C/C=C/C=C/[C@H](O[C@@H]2O[C@H](C)[C@@H](O)[C@H](N)[C@@H]2O)C[C@@H]2O[C@](O)(C[C@@H](O)C[C@@H](O)[C@H](O)CC[C@@H](O)C[C@@H](O)CC(=O)O[C@H]1C)C[C@H](O)[C@H]2C(=O)O [Amphotericin B],"MIC, free",C. albicans [1],0.4 mg/L
same,Replication of HTLV-III/LAV (in words),HTLV-III/LAV,inhibited
C[C@@H]1[C@H](O)[C@@H](C)/C=C/C=C/CC/C=C/C=C/C=C/C=C/C(O[C@H]2O[C@H](C)[C@@H](O)[C@H](N)[C@@H]2O)CC2O[C@](O)(CC(O)C(O)CCC(O)CC(O)CC(O)CC(=O)O[C@H]1C)CC(O)C2C(=O)O (some centres unmarked) [Nystatin],"MIC, free",C. albicans [1],1.0 mg/L
mepartricin,"MIC, free",C. albicans [1],2.0 to 4.0 mg/L
